Reference: ChEMBL document CHEMBL4118134, “Design, synthesis, and evaluation of novel N-1 fluoroquinolone derivatives: Probing for binding contact with the active site tyrosine of gyrase” (Bioorg Med Chem Lett, 2018)
Active and inactive are the calls of the source. The rule behind the calls is not given here.

organism: Homo sapiens; assay: Inhibition of human topoisomerase 2 assessed as reduction in decatenatation of kinetoplast DNA at 200 uM incubated for 15 mins by ethidium bromide staining based gel electrophoresis method

inhibition	Compound
inactive	COc1c(N2CC[C@@H](CN)C2)c(F)cc2c1N(C1CC1)CC(C(=O)O)C2=O (stereo not given in full)

organism: Homo sapiens; assay: Poison activity at human topoisomerase 2 assessed as increase in linear DNA generation at 5 to 10 uM incubated for 10 mins by ethidium bromide staining based gel electrophoresis based DNA cleavage assay relative to untreated control

Compound	Activity
COc1cc([C@@H]2c3cc4c(cc3[C@@H](O[C@@H]3O[C@@H]5CO[C@@H](C)O[C@H]5[C@H](O)[C@H]3O)[C@H]3COC(=O)[C@H]23)OCO4)cc(OC)c1O [ETOPOSIDE]	400 to 800%

molecular target: not listed separately; assay: Inhibition of human topoisomerase 2 assessed as reduction in decatenatation of kinetoplast DNA incubated for 15 mins by ethidium bromide staining based gel electrophoresis method

IC50	Compound
60 µM	COc1cc([C@@H]2c3cc4c(cc3[C@@H](O[C@@H]3O[C@@H]5CO[C@@H](C)O[C@H]5[C@H](O)[C@H]3O)[C@H]3COC(=O)[C@H]23)OCO4)cc(OC)c1O [ETOPOSIDE]

molecular target: DNA gyrase (Escherichia coli, UniProt P0AES4+P0AES6); assay: Inhibition of Escherichia coli DNA gyrase subunit GyrA/GyrB supercoiling activity using relaxed pBR322 DNA incubated for 15 mins by ethidium bromide staining based gel electrophoresis method; assay type: protein-complex assay

IC50	Compound
0.12 µM	COc1c(N2CC[C@@H](CN)C2)c(F)cc2c1N(C1CC1)CC(C(=O)O)C2=O (stereo not given in full)

molecular target: T1, DNA gyrase (Escherichia coli) (UniProt P0AES6+P0AES4); assay: Poison activity at Escherichia coli DNA gyrase assessed as increase in linear DNA generation at 10 uM using supercoiled pBR322 DNA incubated for 10 mins by ethidium bromide staining based gel electrophoresis based DNA cleavage assay relative to untreated control; assay type: protein-complex assay

Compound	fold change (FC)
COc1c(N2CC[C@@H](CN)C2)c(F)cc2c(=O)c(C(=O)O)cn(CCc3ccccc3)c12	< 2
COc1c(N2CC[C@@H](CN)C2)c(F)cc2c(=O)c(C(=O)O)cn(CCCCN)c12	< 2
COc1c(N2CC[C@@H](CN)C2)c(F)cc2c(=O)c(C(=O)O)cn(CCCN)c12	< 2
COc1c(N2CC[C@@H](CN)C2)c(F)cc2c1N(C1CC1)CC(C(=O)O)C2=O (stereo not given in full)	> 4
CCN1CCN(c2c(F)cc3c(=O)c(C(=O)O)cn(Cc4ccccc4)c3c2OC)CC1	< 2
COc1c(N2CC[C@@H](CN)C2)c(F)cc2c(=O)c(C(=O)O)cn(CCCCCN)c12	< 2
COc1c(N2CC[C@@H](CN)C2)c(F)cc2c(=O)c(C(=O)O)cn(Cc3ccccc3)c12	< 2
COc1c(N2CC[C@@H](CN)C2)c(F)cc2c(=O)c(C(=O)O)cn(CCCN3C(=O)c4ccccc4C3=O)c12	< 2
COc1c(N2CC[C@@H](CN)C2)c(F)cc2c(=O)c(C(=O)O)cn(CCCCCN3C(=O)c4ccccc4C3=O)c12	< 2
COc1c(N2CC[C@@H](CN)C2)c(F)cc2c(=O)c(C(=O)O)cn(CCCCN3C(=O)c4ccccc4C3=O)c12	< 2
COc1c(N2CC[C@@H](CN)C2)c(F)cc2c(=O)c(C(=O)O)cn(CCCc3ccccc3)c12	< 2
COc1ccc(Cn2cc(C(=O)O)c(=O)c3cc(F)c(N4CC[C@@H](CN)C4)c(OC)c32)cc1	< 2
CCN1CCN(c2c(F)cc3c(=O)c(C(=O)O)cn(CCCCCN)c3c2OC)CC1	< 2

molecular target: T1, DNA gyrase (Escherichia coli); assay: Inhibition of Escherichia coli DNA gyrase subunit GyrA/GyrB supercoiling activity at 10 uM using relaxed pBR322 DNA incubated for 15 mins by ethidium bromide staining based gel electrophoresis method; assay type: protein-complex assay

Compound	inhibition
COc1c(N2CC[C@@H](CN)C2)c(F)cc2c(=O)c(C(=O)O)cn(CCCCN)c12	25.7%
COc1c(N2CC[C@@H](CN)C2)c(F)cc2c1N(C1CC1)CC(C(=O)O)C2=O (stereo not given in full)	> 96%
COc1c(N2CC[C@@H](CN)C2)c(F)cc2c(=O)c(C(=O)O)cn(Cc3ccccc3)c12	37.7%
COc1c(N2CC[C@@H](CN)C2)c(F)cc2c(=O)c(C(=O)O)cn(CCCN3C(=O)c4ccccc4C3=O)c12	< 5%
COc1c(N2CC[C@@H](CN)C2)c(F)cc2c(=O)c(C(=O)O)cn(CCCCCN3C(=O)c4ccccc4C3=O)c12	20.2%
COc1ccc(Cn2cc(C(=O)O)c(=O)c3cc(F)c(N4CC[C@@H](CN)C4)c(OC)c32)cc1	25.2%

Continued, values first:

inhibition	Compound
11%	COc1c(N2CC[C@@H](CN)C2)c(F)cc2c(=O)c(C(=O)O)cn(CCc3ccccc3)c12
< 5%	COc1c(N2CC[C@@H](CN)C2)c(F)cc2c(=O)c(C(=O)O)cn(CCCN)c12
23.3%	CCN1CCN(c2c(F)cc3c(=O)c(C(=O)O)cn(Cc4ccccc4)c3c2OC)CC1
12.3%	COc1c(N2CC[C@@H](CN)C2)c(F)cc2c(=O)c(C(=O)O)cn(CCCCCN)c12
20.4%	COc1c(N2CC[C@@H](CN)C2)c(F)cc2c(=O)c(C(=O)O)cn(CCCCN3C(=O)c4ccccc4C3=O)c12
27.1%	COc1c(N2CC[C@@H](CN)C2)c(F)cc2c(=O)c(C(=O)O)cn(CCCc3ccccc3)c12
< 5%	CCN1CCN(c2c(F)cc3c(=O)c(C(=O)O)cn(CCCCCN)c3c2OC)CC1
